Measured values reported in US20240239781A1, “1H-PYRAZOLE DERIVATIVES AS SIGMA LIGANDS” (ACONDICIONAMIENTO TARRASENSE, priority 2021, published 2024).

Experiments:
human σ1 receptor = target: T1, human σ1 receptor (Homo sapiens, UniProt Q99720); assay: Human σ1 receptor radioligand assay ([3H](+)-pentazocine, transfected HEK-293 membranes); conditions: class scale, read-out: Binding σ-1 Ki
T1 construct: expressed in transfected cells; host or cells: HEK-293
Summary of the method: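 Membranes (7 μg) from transfected HEK-293 cells were incubated with 5 nM [3H](+)-pentazocine in 50 mM Tris-HCl, pH 8, for 120 minutes at 37° C, with 10 μM haloperidol defining non-specific binding. Bound radioactivity was filtered and counted by scintillation. Results are % inhibition at 1 or 10 μM or Ki from five concentrations.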

human σ2/TMEM97 receptor = target: T2, human σ2/TMEM97 receptor (Homo sapiens, UniProt Q5BJF2); assay: Binding assay to human σ2/TMEM97 receptor ([3H]-DTG, transfected HEK-293 membranes); conditions: class scale, read-out: Binding σ-2 Ki
T2 construct: expressed in transfected cells; host or cells: HEK-293
Summary of the method: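 Membranes (15 μg) from transfected HEK-293 incubated 120 min at 25 °C with 10 nM [3H]-DTG in 50 mM Tris-HCl pH 8.0; nonspecific binding with 10 μM haloperidol. Filtration and scintillation counting; % inhibition at 1 or 10 μM, or Ki from five concentrations.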

T1 sequence (Q99720 whole entry): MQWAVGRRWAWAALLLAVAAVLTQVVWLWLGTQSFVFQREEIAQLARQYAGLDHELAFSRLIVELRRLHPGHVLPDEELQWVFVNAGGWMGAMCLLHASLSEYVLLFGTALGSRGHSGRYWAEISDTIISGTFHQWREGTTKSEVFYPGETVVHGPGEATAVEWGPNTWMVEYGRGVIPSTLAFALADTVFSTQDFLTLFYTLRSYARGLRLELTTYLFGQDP
T2 sequence (Q5BJF2 whole entry): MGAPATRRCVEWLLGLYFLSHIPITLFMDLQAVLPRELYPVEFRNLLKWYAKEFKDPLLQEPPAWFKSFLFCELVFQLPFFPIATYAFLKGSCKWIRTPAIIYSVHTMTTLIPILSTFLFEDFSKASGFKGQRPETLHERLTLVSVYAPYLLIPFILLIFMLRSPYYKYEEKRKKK

Cc1cc(-c2nn(C)c(Cl)c2C(=O)N2CCCC(CN(C)CC(C)C)C2)no1 (centres unmarked) [Example 122, (5-Chloro-1-methyl-3-(5-methylisoxazol-3-yl)-1H-pyrazol-4-yl)(3-((isobutyl(methyl)amino)methyl)piperidin-1-yl)methanone]
Ki (human σ1 receptor): > 1000 nM | Ki (human σ2/TMEM97 receptor): > 1000 nM

Cc1cc(-c2nn(C)c(Cl)c2C(=O)N2CC[C@]3(C2)C[C@@H](NCCC(C)(C)C)C3)no1 [Example 123, (5-Chloro-1-methyl-3-(5-methylisoxazol-3-yl)-1H-pyrazol-4-yl)((2r,4s)-2-((3,3-dimethylbutyl)amino)-6-azaspiro[3.4]octan-6-yl)methanone]
Ki (human σ1 receptor): > 1000 nM | Ki (human σ2/TMEM97 receptor): < 100 nM

Cn1nc(-c2cccc(O)n2)c(C(=O)N2CCC3(CCN(CCC(C)(C)C)CC3)CC2)c1Cl [Example 124, (5-Chloro-3-(6-hydroxypyridin-2-yl)-1-methyl-1H-pyrazol-4-yl)(9-(3,3-dimethylbutyl)-3,9-diazaspiro[5.5]undecan-3-yl)methanone]
Ki (human σ1 receptor): > 1000 nM | Ki (human σ2/TMEM97 receptor): 100 to 500 nM

Cc1cc(-c2nn(C)c(Cl)c2C(=O)N2CCC[C@H](CNCCC(C)C)C2)no1 [Example 125, (R)-(5-Chloro-1-methyl-3-(5-methylisoxazol-3-yl)-1H-pyrazol-4-yl)(3-((isopentylamino)methyl)piperidin-1-yl)methanone]
Ki (human σ1 receptor): > 1000 nM | Ki (human σ2/TMEM97 receptor): 500 to 1000 nM

Cc1cc(-c2nn(C)c(Cl)c2C(=O)N2CCC[C@@H](CNCCC(C)C)C2)no1 [Example 126, (S)-(5-Chloro-1-methyl-3-(5-methylisoxazol-3-yl)-1H-pyrazol-4-yl)(3-((isopentylamino)methyl)piperidin-1-yl)methanone]
Ki (human σ1 receptor): > 1000 nM | Ki (human σ2/TMEM97 receptor): > 1000 nM

CCn1nc(-c2cc(C)on2)c(C(=O)NC2CC3(CCN(CCC(C)(C)C)CC3)C2)c1Cl [Example 127, 5-Chloro-N-(7-(3,3-dimethylbutyl)-7-azaspiro[3.5]nonan-2-yl)-1-ethyl-3-(5-methylisoxazol-3-yl)-1H-pyrazole-4-carboxamide]
Ki (human σ1 receptor): < 100 nM | Ki (human σ2/TMEM97 receptor): < 100 nM

Cc1cc(-c2nn(C)c(Cl)c2C(=O)N2CCCC3(CCN(Cc4ccc(F)c(F)c4)CC3)C2)no1 [Example 128, (5-Chloro-1-methyl-3-(5-methylisoxazol-3-yl)-1H-pyrazol-4-yl)(9-(3,4-difluorobenzyl)-2,9-diazaspiro[5.5]undecan-2-yl)methanone]
Ki (human σ1 receptor): 100 to 500 nM | Ki (human σ2/TMEM97 receptor): < 100 nM

Cc1cc(-c2nn(C)c(Cl)c2C(=O)N2CCC3(CCN(Cc4ccc(F)cc4)CC3)CC2)no1 [Example 129, (5-Chloro-1-methyl-3-(5-methylisoxazol-3-yl)-1H-pyrazol-4-yl)(9-(4-fluorobenzyl)-3,9-diazaspiro[5.5]undecan-3-yl)methanone]
Ki (human σ1 receptor): 100 to 500 nM | Ki (human σ2/TMEM97 receptor): < 100 nM

Cc1cc(-c2nn(C)c(Cl)c2C(=O)N2CCC3(CCN(Cc4ccc(F)c(F)c4)CC3)CC2)no1 [Example 130, (5-Chloro-1-methyl-3-(5-methylisoxazol-3-yl)-1H-pyrazol-4-yl)(9-(3,4-difluorobenzyl)-3,9-diazaspiro[5.5]undecan-3-yl)methanone]
Ki (human σ1 receptor): 500 to 1000 nM | Ki (human σ2/TMEM97 receptor): 100 to 500 nM

Cc1cc(-c2nn(C)c(Cl)c2C(=O)N2CCC3(CCN(Cc4ccc(C#N)c(F)c4)CC3)CC2)no1 [Example 131, 4-((9-(5-Chloro-1-methyl-3-(5-methylisoxazol-3-yl)-1H-pyrazole-4-carbonyl)-3,9-diazaspiro[5.5]undecan-3-yl)methyl)-2-fluorobenzonitrile]
Ki (human σ1 receptor): 500 to 1000 nM | Ki (human σ2/TMEM97 receptor): 500 to 1000 nM

CC(C)c1cc(-c2nn(C)c(Cl)c2C(=O)N2CCCC3(CCN(CCC(C)(C)C)CC3)C2)no1 [Example 132, (5-Chloro-3-(5-isopropylisoxazol-3-yl)-1-methyl-1H-pyrazol-4-yl)(9-(3,3-dimethylbutyl)-2,9-diazaspiro[5.5]undecan-2-yl)methanone]
Ki (human σ1 receptor): 100 to 500 nM | Ki (human σ2/TMEM97 receptor): < 100 nM

CCc1nc(C)c(-c2nn(C)c(Cl)c2C(=O)N2CCCC3(CCN(CCC(C)(C)C)CC3)C2)o1 [Example 133, (5-Chloro-3-(2-ethyl-4-methyloxazol-5-yl)-1-methyl-1H-pyrazol-4-yl)(9-(3,3-dimethylbutyl)-2,9-diazaspiro[5.5]undecan-2-yl)methanone]
Ki (human σ1 receptor): 500 to 1000 nM | Ki (human σ2/TMEM97 receptor): < 100 nM

CCn1nc(-c2cc(C)on2)c(C(=O)NC2CCC3(CC2)CN(CCC(C)(C)C)C3)c1Cl [Example 134, 5-Chloro-N-(2-(3,3-dimethylbutyl)-2-azaspiro[3.5]nonan-7-yl)-1-ethyl-3-(5-methylisoxazol-3-yl)-1H-pyrazole-4-carboxamide]
Ki (human σ1 receptor): < 100 nM | Ki (human σ2/TMEM97 receptor): < 100 nM

Cn1cc(-c2nn(C)c(Cl)c2C(=O)N2CCCC3(CCN(CCC(C)(C)C)CC3)C2)cn1 [Example 135, (5-Chloro-1,1′-dimethyl-1H,1′H-[3,4′-bipyrazol]-4-yl)(9-(3,3-dimethylbutyl)-2,9-diazaspiro[5.5]undecan-2-yl)methanone]
Ki (human σ1 receptor): > 1000 nM | Ki (human σ2/TMEM97 receptor): < 100 nM

CCc1cc(-c2nn(CC)c(Cl)c2C(=O)NC2CC3(CCN(CCC(C)(C)C)CC3)C2)no1 [Example 136, 5-Chloro-N-(7-(3,3-dimethylbutyl)-7-azaspiro[3.5]nonan-2-yl)-1-ethyl-3-(5-ethylisoxazol-3-yl)-1H-pyrazole-4-carboxamide]
Ki (human σ1 receptor): < 100 nM | Ki (human σ2/TMEM97 receptor): < 100 nM

CCc1cc(-c2nn(CC)c(Cl)c2C(=O)NC2CCC3(CC2)CN(CCC(C)(C)C)C3)no1 [Example 137, 5-Chloro-N-(2-(3,3-dimethylbutyl)-2-azaspiro[3.5]nonan-7-yl)-1-ethyl-3-(5-ethylisoxazol-3-yl)-1H-pyrazole-4-carboxamide]
Ki (human σ1 receptor): < 100 nM | Ki (human σ2/TMEM97 receptor): < 100 nM

CCn1ccc(-c2nn(C)c(Cl)c2C(=O)N2CCCC3(CCN(CCC(C)(C)C)CC3)C2)n1 [Example 138, (5-Chloro-1′-ethyl-1-methyl-1H,1′H-[3,3′-bipyrazol]-4-yl)(9-(3,3-dimethylbutyl)-2,9-diazaspiro[5.5]undecan-2-yl)methanone]
Ki (human σ1 receptor): 500 to 1000 nM | Ki (human σ2/TMEM97 receptor): < 100 nM

CCn1nc(-c2ccon2)c(C(=O)NC2CC3(CCN(CCC(C)(C)C)CC3)C2)c1Cl [Example 139, 5-Chloro-N-(7-(3,3-dimethylbutyl)-7-azaspiro[3.5]nonan-2-yl)-1-ethyl-3-(isoxazol-3-yl)-1H-pyrazole-4-carboxamide]
Ki (human σ1 receptor): 100 to 500 nM | Ki (human σ2/TMEM97 receptor): < 100 nM

Cn1cc(-c2nn(C)c(Cl)c2C(=O)NC2CC3(CCN(CCC(C)(C)C)CC3)C2)cn1 [Example 140, 5-Chloro-N-(7-(3,3-dimethylbutyl)-7-azaspiro[3.5]nonan-2-yl)-1,1′-dimethyl-1H,1′H-[3,4′-bipyrazole]-4-carboxamide]
Ki (human σ1 receptor): 500 to 1000 nM | Ki (human σ2/TMEM97 receptor): < 100 nM

Cc1cccc(-c2nn(C)c(Cl)c2C(=O)NC2CC3(CCN(CCC(C)(C)C)CC3)C2)n1 [Example 141, 5-Chloro-N-(7-(3,3-dimethylbutyl)-7-azaspiro[3.5]nonan-2-yl)-1-methyl-3-(6-methylpyridin-2-yl)-1H-pyrazole-4-carboxamide]
Ki (human σ1 receptor): < 100 nM | Ki (human σ2/TMEM97 receptor): < 100 nM

CCn1nc(-c2ccon2)c(C(=O)NC2CCC3(CC2)CCN(CCC(C)(C)C)CC3)c1Cl [Example 142, 5-Chloro-N-(3-(3,3-dimethylbutyl)-3-azaspiro[5.5]undecan-9-yl)-1-ethyl-3-(isoxazol-3-yl)-1H-pyrazole-4-carboxamide]
Ki (human σ1 receptor): < 100 nM | Ki (human σ2/TMEM97 receptor): < 100 nM

CCn1nc(-c2cc(C)on2)c(C(=O)NC2CCC3(CC2)CCN(CCC(C)(C)C)CC3)c1Cl [Example 143, 5-Chloro-N-(3-(3,3-dimethylbutyl)-3-azaspiro[5.5]undecan-9-yl)-1-ethyl-3-(5-methylisoxazol-3-yl)-1H-pyrazole-4-carboxamide]
Ki (human σ1 receptor): < 100 nM | Ki (human σ2/TMEM97 receptor): < 100 nM

Cc1cc(-c2nn(C)c(Cl)c2C(=O)N2CC3(CCCN(CCC(C)(C)C)C3)C2)no1 [Example 144, (5-Chloro-1-methyl-3-(5-methylisoxazol-3-yl)-1H-pyrazol-4-yl)(6-(3,3-dimethylbutyl)-2,6-diazaspiro[3.5]nonan-2-yl)methanone]
Ki (human σ1 receptor): 500 to 1000 nM | Ki (human σ2/TMEM97 receptor): 100 to 500 nM

CCn1cc(-c2nn(C)c(Cl)c2C(=O)NC2CC3(CCN(CCC(C)(C)C)CC3)C2)cn1 [Example 145, 5-Chloro-N-(7-(3,3-dimethylbutyl)-7-azaspiro[3.5]nonan-2-yl)-1′-ethyl-1-methyl-1H,1′H-[3,4′-bipyrazole]-4-carboxamide]
Ki (human σ1 receptor): 500 to 1000 nM | Ki (human σ2/TMEM97 receptor): < 100 nM

CCn1cc(-c2nn(C)c(Cl)c2C(=O)NC2CCC3(CC2)CCN(CCC(C)(C)C)CC3)cn1 [Example 146, 5-Chloro-N-(3-(3,3-dimethylbutyl)-3-azaspiro[5.5]undecan-9-yl)-1′-ethyl-1-methyl-1H,1′H-[3,4′-bipyrazole]-4-carboxamide]
Ki (human σ1 receptor): 500 to 1000 nM | Ki (human σ2/TMEM97 receptor): < 100 nM

Cn1nc(-c2cccc(C(F)(F)F)n2)c(C(=O)NC2CCC3(CC2)CCN(CCC(C)(C)C)CC3)c1Cl [Example 147, 5-Chloro-N-(3-(3,3-dimethylbutyl)-3-azaspiro[5.5]undecan-9-yl)-1-methyl-3-(6-(trifluoromethyl)pyridin-2-yl)-1H-pyrazole-4-carboxamide]
Ki (human σ1 receptor): < 100 nM | Ki (human σ2/TMEM97 receptor): < 100 nM

Cc1cccc(-c2nn(C)c(Cl)c2C(=O)NC2CCC3(CC2)CCN(CCC(C)(C)C)CC3)n1 [Example 148, 5-Chloro-N-(3-(3,3-dimethylbutyl)-3-azaspiro[5.5]undecan-9-yl)-1-methyl-3-(6-methylpyridin-2-yl)-1H-pyrazole-4-carboxamide]
Ki (human σ1 receptor): < 100 nM | Ki (human σ2/TMEM97 receptor): < 100 nM

CCn1nc(-c2cnn(C(C)C)c2)c(C(=O)NC2CC3(CCN(CCC(C)(C)C)CC3)C2)c1Cl [Example 149, 5-Chloro-N-(7-(3,3-dimethylbutyl)-7-azaspiro[3.5]nonan-2-yl)-1-ethyl-1′-isopropyl-1H,1′H-[3,4′-bipyrazole]-4-carboxamide]
Ki (human σ1 receptor): 100 to 500 nM | Ki (human σ2/TMEM97 receptor): < 100 nM
